Data taken from ChEMBL document CHEMBL3988442, “University of Dundee, Small-Polar-MMV Screening Library” (2021).
Where “and” joins values, the source holds several entries; their conditions need not be identical. Identical values can stand only once.

Experiments:
Leishmania donovani = assay: Leishmania intramacrophage assay; assay type: functional, organism-based; conditions: for IC50: Leishmania donovani
Trypanosoma brucei = assay: Trypanosoma brucei 72 hour study; assay type: functional, organism-based; conditions: for IC50: Trypanosoma brucei, 72 h
Histidine--tRNA ligase [1] = target: T1, Histidine--tRNA ligase (Trypanosoma cruzi (strain CL Brener), UniProt Q4DA54); assay: Trypanosoma cruzi histidyl tRNA synthetase (Tc-HisRS); assay type: functional
T1 sequence (Q4DA54 whole entry): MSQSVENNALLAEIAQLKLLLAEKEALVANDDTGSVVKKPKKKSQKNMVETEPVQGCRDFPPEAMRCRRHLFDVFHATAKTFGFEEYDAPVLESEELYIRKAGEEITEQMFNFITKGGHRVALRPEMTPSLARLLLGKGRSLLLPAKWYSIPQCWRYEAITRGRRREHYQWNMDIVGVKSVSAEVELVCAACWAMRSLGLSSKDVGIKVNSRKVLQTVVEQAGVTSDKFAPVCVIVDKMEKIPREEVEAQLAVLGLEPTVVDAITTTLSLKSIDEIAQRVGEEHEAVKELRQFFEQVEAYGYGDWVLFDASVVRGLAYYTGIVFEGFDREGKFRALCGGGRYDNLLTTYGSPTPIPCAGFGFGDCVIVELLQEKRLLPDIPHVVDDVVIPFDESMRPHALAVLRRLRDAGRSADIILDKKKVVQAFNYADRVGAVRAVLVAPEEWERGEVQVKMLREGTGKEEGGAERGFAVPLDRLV

Lysine--tRNA ligase = Lysine--tRNA ligase (Plasmodium falciparum (isolate 3D7), UniProt Q8IDJ8); assay: Pf-KRS-1 (Lysyl-RNA Synthetase-1, KRS-1, cytosolic KRS) from Plasmodium falciparum. Inhibitor assay, 384 well plate, luminescence read.; assay type: functional
Chain of Lysine--tRNA ligase (Q8IDJ8 whole entry): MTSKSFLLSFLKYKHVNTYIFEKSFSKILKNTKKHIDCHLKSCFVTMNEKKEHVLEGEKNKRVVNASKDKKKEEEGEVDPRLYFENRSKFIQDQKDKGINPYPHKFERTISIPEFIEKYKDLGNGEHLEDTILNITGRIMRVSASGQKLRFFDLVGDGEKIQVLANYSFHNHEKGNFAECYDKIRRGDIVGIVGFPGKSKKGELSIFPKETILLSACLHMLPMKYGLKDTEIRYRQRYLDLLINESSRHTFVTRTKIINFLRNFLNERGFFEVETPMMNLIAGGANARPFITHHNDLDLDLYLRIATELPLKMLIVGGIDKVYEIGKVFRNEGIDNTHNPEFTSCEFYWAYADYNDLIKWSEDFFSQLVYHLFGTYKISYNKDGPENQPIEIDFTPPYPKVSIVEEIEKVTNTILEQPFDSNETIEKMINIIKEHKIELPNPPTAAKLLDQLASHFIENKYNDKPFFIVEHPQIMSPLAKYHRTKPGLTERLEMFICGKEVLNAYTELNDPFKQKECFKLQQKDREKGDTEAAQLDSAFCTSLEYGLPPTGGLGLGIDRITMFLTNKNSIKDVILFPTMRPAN

Histidine--tRNA ligase [2] = target: T2, Histidine--tRNA ligase (Leishmania infantum, UniProt A4I591); assay: Leishmania infantum Histidine tRNA synthetase (LdHisRS); assay type: functional
T2 sequence (A4I591 whole entry): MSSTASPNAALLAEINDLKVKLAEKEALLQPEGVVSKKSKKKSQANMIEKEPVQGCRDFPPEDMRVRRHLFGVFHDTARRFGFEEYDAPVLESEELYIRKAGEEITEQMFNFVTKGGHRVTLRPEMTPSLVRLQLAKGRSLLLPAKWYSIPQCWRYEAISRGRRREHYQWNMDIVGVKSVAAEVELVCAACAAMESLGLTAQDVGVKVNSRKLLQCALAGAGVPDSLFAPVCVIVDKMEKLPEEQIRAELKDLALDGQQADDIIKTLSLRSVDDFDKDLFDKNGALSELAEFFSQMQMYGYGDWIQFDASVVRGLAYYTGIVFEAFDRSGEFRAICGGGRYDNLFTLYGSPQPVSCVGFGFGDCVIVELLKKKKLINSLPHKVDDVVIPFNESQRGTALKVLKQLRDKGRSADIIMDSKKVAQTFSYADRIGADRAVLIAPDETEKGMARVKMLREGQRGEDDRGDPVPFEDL

[3] = target: T3, Ubiquitin-activating enzyme e1, putative (Leishmania donovani (strain BPK282A1), UniProt E9BSI1); assay: Leishmania donovani Ubiquitin Activating Enzyme (LdE1); assay type: functional
T3 sequence (E9BSI1 whole entry): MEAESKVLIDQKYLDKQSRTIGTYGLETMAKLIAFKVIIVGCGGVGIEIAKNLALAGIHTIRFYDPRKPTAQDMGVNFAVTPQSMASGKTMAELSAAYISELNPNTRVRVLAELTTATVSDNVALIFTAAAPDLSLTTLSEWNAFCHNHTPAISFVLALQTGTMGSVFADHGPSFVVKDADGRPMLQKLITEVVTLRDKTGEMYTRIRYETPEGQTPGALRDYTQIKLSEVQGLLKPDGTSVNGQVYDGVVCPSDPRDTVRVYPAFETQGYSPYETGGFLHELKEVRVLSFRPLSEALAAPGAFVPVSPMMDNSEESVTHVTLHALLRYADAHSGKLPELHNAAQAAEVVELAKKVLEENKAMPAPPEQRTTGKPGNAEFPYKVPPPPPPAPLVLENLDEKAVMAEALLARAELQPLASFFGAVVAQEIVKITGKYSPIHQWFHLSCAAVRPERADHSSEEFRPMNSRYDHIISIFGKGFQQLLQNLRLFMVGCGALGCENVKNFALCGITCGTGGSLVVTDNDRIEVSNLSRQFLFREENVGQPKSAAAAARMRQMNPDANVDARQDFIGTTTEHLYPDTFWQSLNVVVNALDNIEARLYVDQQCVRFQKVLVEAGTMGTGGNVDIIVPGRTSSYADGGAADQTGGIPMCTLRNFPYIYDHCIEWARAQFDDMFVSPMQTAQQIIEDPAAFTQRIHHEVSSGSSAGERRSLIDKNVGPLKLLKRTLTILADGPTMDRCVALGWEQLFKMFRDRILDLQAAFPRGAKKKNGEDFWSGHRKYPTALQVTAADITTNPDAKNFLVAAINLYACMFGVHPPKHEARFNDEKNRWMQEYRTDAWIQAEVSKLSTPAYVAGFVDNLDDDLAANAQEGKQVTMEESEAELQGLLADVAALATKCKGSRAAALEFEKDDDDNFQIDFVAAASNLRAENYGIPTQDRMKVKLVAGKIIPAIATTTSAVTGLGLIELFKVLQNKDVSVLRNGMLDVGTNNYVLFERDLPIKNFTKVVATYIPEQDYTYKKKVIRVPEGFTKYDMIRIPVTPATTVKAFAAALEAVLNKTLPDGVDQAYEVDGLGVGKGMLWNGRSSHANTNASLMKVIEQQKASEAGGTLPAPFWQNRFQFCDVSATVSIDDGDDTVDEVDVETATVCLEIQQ

[4] = tested on: Mycobacterium tuberculosis; assay: Cornell M. t heat shock assay; assay type: functional, organism-based; conditions: Mycobacterium tuberculosis
[5] = target: T4, Coenzyme A biosynthesis bifunctional protein CoaBC (Mycobacterium tuberculosis (strain ATCC 25618 / H37Rv), UniProt P9WNZ1); assay: Biomol Green assay for MtCoaBC inhibitor, OD650 read; assay type: functional
T4 sequence (P9WNZ1 whole entry): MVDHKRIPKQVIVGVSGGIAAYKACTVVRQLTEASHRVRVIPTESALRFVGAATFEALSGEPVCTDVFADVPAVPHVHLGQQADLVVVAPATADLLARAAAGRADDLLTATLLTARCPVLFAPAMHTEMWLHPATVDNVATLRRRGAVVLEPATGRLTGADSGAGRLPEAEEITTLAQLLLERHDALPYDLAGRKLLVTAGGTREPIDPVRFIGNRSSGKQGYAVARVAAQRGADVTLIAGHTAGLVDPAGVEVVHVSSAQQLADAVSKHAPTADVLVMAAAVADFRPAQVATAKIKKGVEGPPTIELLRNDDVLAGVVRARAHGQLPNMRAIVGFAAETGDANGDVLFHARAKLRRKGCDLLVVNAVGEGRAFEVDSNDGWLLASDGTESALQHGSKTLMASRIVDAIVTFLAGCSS

[6] = microbe, parasite or virus in culture; conditions: Mycobacterium tuberculosis, 96 h, read-out: pIC50 (converted)
Plasmodium falciparum = assay: Calibr Malaria Delayed Death Assay SOP; assay type: functional, organism-based; conditions: for IC50: Plasmodium falciparum
[7] = microbe, parasite or virus in culture; conditions: Mycobacterium tuberculosis, 72 h, read-out: pIC50 (converted)

SMILES | pIC50 (Trypanosoma brucei) | IC50 (Trypanosoma brucei) [µM] | IC50 (Histidine--tRNA ligase [1]) | IC50 (Histidine--tRNA ligase [2]) | IC50 [3] [µM] | other results
CCCc1ccc(C(C)Nc2ncnc3c2CCNC3)cc1 (stereo not given) | 4.735 and 4.73 | 20.2 | – | – | – | pIC50 (Leishmania donovani): 4.733; IC50 (Leishmania donovani): 21.6 µM
CN(C)c1ccc(-c2cc(C(=O)O)cc(S(=O)(=O)NC3CC3)c2)cc1 | 5.904 and 6.15 | 0.716 | – | – | – | –
COc1cccn(CC(=O)N2CCC3(CCNCC3)C2)c1=O | – | – | 6.27 µM and 15.2 µM | 3.66 µM and 3.72 µM | – | IC50 (Lysine--tRNA ligase): > 50.1 µM
CCOC1CCN(C(=O)Nc2ccc(=O)n(C)c2)CC1 | – | – | 23.9 µM and 23.3 µM | 0.995 µM and 1.6 µM and 2.46 µM and 3.11 µM | > 100 | –
Cn1cc(NC(=O)N2CCC(Cc3ccccc3)CC2)ccc1=O | – | – | 3.14 µM and 2.52 µM | 6.79 µM and 5.48 µM | > 100 | –
Cn1cc(NC(=O)C2CC(c3ccccc3)C2)ccc1=O (stereo not given) | – | – | 8.22 µM | 8.88 µM and 10.5 µM | > 100 | –
Cn1cc(NC(=O)N2CCC(OCc3ccccc3)CC2)ccc1=O | – | – | 17 µM and 14.8 µM | 11.6 µM and 6.66 µM | > 100 | –
Cn1cc(NC(=O)N2CCC2c2ccccc2)ccc1=O (stereo not given) | – | – | 27.5 µM and 31.2 µM | 7.08 µM and 6.57 µM | > 100 | IC50 (Lysine--tRNA ligase): > 50.1 µM
O=C(NCCc1coc(-c2ccc(F)cc2)n1)NC1CC1 | 5.662 and 5.643 | 2.17 | – | – | – | –
Cc1cc(C)n(CC2CCCN2Cc2nc(N)c3ccccc3n2)n1 (stereo not given) | – | – | > 100 µM | – | – | IC50 [4]: > 100 µM
Cn1cc(NC(=O)N2CCC(CN3CCCC3)CC2)ccc1=O | – | – | > 100 µM | – | > 100 | –
Cn1cc(NC(=O)N2CCC(NS(C)(=O)=O)CC2)ccc1=O | – | – | 52.1 µM and 49.1 µM | 2.32 µM and 2.57 µM | > 100 | IC50 [5]: > 30.2 µM; IC50 (Lysine--tRNA ligase): > 50.1 µM
CC(C)(C)C(=O)NCCc1ccn(-c2ccccc2)n1 | 5.66 and 5.649 | 2.22 | – | – | – | –
CCOC1CCCN(C(=O)NCCc2ccn(-c3ccccc3)n2)C1 (stereo not given) | 6.745 and 6.727 | 0.141 | – | – | – | –
O=C(NCCc1ccn(-c2ccccc2)n1)N1CCC1 | 6.164 and 6.213 | 0.53 | – | – | – | –
CCOC(=O)N1CC2(CCNCC2)c2cc(Cl)ccc21.Cl | 4.722 and 4.602 | 20.3 | – | – | – | pIC50 (Leishmania donovani): 4.68; IC50 (Leishmania donovani): 22.3 µM
Cc1cccc(CN2CCCCC2c2n[nH]cc2-c2cc(C)no2)c1.Cl (stereo not given) | 4.638 and 4.693 | 19.8 | – | – | – | –
Cl.Fc1ccc(F)c(CN2CCC(c3cc4ncccc4cn3)CC2)c1 | – | – | 58.4 µM and 43.6 µM | – | – | IC50 [6]: > 50.1 µM; pIC50 (Plasmodium falciparum): 6.54; IC50 (Plasmodium falciparum): 0.505 µM; IC50 [7]: 27.2 µM; IC50 [4]: > 100 µM
Cl.Fc1cccc(CN2CCC(c3cc4ncccc4cn3)CC2)c1F | – | – | 28.5 µM and 56.4 µM | – | – | pIC50 (Plasmodium falciparum): 6.161; IC50 (Plasmodium falciparum): 0.897 µM; IC50 [4]: 43.3 µM
Cc1nc(C2(O)CCCNCC2)sc1CCOc1ccccc1F.Cl (stereo not given) | 4.648 and 4.682 | 21.9 | – | – | – | –
